Measured values reported in article PMC6895048, “4,5-Disubstituted 1,2,3-triazoles: Effective Inhibition of Indoleamine 2,3-Dioxygenase 1 Enzyme Regulates T cell Activity and Mitigates Tumor Growth” (Scientific Reports, 2019).

Assays:
IDO1 [1] = target: T1, IDO1 (Homo sapiens, UniProt P14902); test: Kynurenine assay by HPLC analysis, IDO1; format: biochemical; set-up: made in house; host or cells: Escherichia coli M15 (pQE30 vector with pREP4 plasmid)
Procedure: (§1) HPLC based IDO1, and TDO inhibition assays were performed according to the earlier reported procedure[19],[27]–[30]. The reaction mixture (250 µL) contained KPB (100 mM, pH 6.5 for IDO1 and 50 mM, pH 8.0 for TDO), sodium ascorbate (20 mM), methylene blue (10 µM), catalase (240 nM, from bovine liver, Sigma), L-Trp (150 µM), purified enzyme (40 nM for IDO1 and 25 nM for TDO), DMSO (0.05%, v/v), Triton-X 100 (0.01%, v/v) and inhibitors. The concentration of the compound was varied from 100 µM to 32 nM by serial dilution. The mixture was incubated at 37 °C for 1 hour in the absence and presence of the synthesized compounds. The reaction was then quenched using 50 µL of 30% (w/v) trichloroacetic acid and incubated at 65 °C for additional 15 minutes to allow complete hydrolysis of N-formylkynurenine to kynurenine. After that, the mixture was centrifuged at 10,000 rpm for 10 minutes, and 100 µL of clear solution was transferred to another tube for HPLC analysis. Then, 20 µL of the reaction mixture was then injected through Ascentis® express C18, 2.7 µm HPLC column with a flow rate of 0.5 mL/minute of the mobile phase containing 50% sodium citrate buffer (40 mM, pH 2.25) and 50% methanol (v/v) with 400 µM SDS. The area under the curve at 365 nm chromatogram corresponding to the kynurenine formation was recorded, and % of inhibition was calculated using standard curve prepared with pure kynurenine (from Sigma) under similar experimental conditions.

TDO enzyme = target: T2, TDO enzyme (Homo sapiens, UniProt P48775); test: HPLC based TDO inhibition assay; format: biochemical
T2 construct: 6xHis (N); made in house; host or cells: Escherichia coli BL21 (DE3) (pET 28a vector)
Procedure: as §1

IDO1 [2] = target: T1, IDO1; test: Circular dichroism analysis of IDO1 enzyme; set-up: made in house; host or cells: Escherichia coli M15 (pQE30 vector with pREP4 plasmid)
Procedure: The Circular Dichroism (CD) spectra of the IDO1 enzyme in the absence or presence of compounds were recorded with a Jasco-810-spectropolarimeter according to the reported procedure[37],[38]. Samples of rIDO1 (2 μM) were prepared in 10 mM KPB buffer (pH 6.5) in a […] quartz cuvette. Spectra were recorded by varying the concentration of the compound (250 nM to 4 µM) using a 1 mL quartz cuvette of 1 cm path length with a Jasco J-1500 spectropolarimeter at 17 °C. Also the spectra were collected at a scan rate […] and 1 nm bandwidth from 200 nm to 260 nm with three times scan for averaging. All final spectra were corrected for buffer background CD signals. The % of the secondary structures of the IDO1 enzyme was analyzed using the inbuilt software of the instrument.

IDO1 [3] = target: T1, IDO1; test: Cellular IDO1 activity assay in IFN-γ induced MDA-MB-231 cells; format: cell-based; set-up: induce the expression of the native IDO1 enzyme from its mRNA in the MDA-MB-231 cells; endogenous in cells; host or cells: MDA-MB-231 cells induced with human IFN-γ (50 ng/mL); details: IDO1 expression induced by human IFN-γ (50 ng/mL); mean of three
Procedure: The cellular enzyme activity assay was performed according to the reported procedure with minor modifications[19],[27]–[30],[33],[54]. Briefly, MDA-MB-231 breast cancer cells were selected for this assay because of the presence of IDO1 mRNA in this cell line. First, cells were grown in DMEM/F12 complete media overnight. Then different concentration of human interferon-gamma (IFN-γ) (from 5–1000 ng/mL) was added to it and incubated for 48 hours. This treatment is reported to allow over-expression of IDO1 enzyme in MDA-MB-231 cells. […] Sterile cell-culture grade PBS was used to wash the cells by centrifugation technique. Then, the pellet was lysed in 10 mM HEPES buffer by passing through a sterile syringe. The lysate was used for standard IDO1 assay as mentioned earlier. The relative amount of N-formylkynurenine generated in the presence of the different concentration of IFN-γ was used to optimize the required concentration of IFN-γ for the IDO1 inhibition assay. […] Cells stimulated with IFN-γ alone were used as negative control, while cells stimulated with L-Trp without compound served as positive control. The cells were washed with sterile cell culture grade PBS and lysed in 10 mM HEPES buffer by sterile syringe. The lysate was used for standard IDO1 assay, as mentioned earlier, and the extent of IDO1 enzyme inhibition was determined for the selected compounds.

[4] = HPLC based IDO1 inhibition assay

T1 sequence (P14902 whole entry): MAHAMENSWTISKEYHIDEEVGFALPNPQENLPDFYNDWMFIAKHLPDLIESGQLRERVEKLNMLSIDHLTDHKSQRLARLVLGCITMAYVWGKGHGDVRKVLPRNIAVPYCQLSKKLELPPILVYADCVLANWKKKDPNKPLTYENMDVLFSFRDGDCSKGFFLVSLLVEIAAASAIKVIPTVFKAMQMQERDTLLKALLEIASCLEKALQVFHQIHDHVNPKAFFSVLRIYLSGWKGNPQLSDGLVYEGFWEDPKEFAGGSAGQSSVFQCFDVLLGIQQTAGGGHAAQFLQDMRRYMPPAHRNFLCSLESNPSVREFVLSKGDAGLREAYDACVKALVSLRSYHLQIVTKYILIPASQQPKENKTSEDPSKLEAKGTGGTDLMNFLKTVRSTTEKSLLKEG
T2 sequence (P48775 whole entry): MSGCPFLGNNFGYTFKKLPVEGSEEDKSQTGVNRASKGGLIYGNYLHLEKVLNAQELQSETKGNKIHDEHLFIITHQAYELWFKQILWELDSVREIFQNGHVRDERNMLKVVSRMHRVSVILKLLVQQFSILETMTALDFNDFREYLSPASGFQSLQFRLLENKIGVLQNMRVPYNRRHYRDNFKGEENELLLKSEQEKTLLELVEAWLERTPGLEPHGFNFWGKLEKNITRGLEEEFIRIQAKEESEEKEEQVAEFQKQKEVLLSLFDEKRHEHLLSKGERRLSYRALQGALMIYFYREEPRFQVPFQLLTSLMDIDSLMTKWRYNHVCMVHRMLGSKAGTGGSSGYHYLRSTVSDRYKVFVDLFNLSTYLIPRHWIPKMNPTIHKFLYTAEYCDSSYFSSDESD

SMILES	IC50 (IDO1 [1]; [4]) [nM]	% of Secondary structural elements, Beta (IDO1 [2]; compound 0.25 µM) [%]	% of Secondary structural elements, Helix (IDO1 [2]; compound 0.25 µM) [%]	% of Secondary structural elements, Random (IDO1 [2]; compound 0.25 µM) [%]	% of Secondary structural elements, Turn (IDO1 [2]; compound 0.25 µM) [%]	% of Secondary structural elements, Beta (IDO1 [2]; compound 0.5 µM) [%]	% of Secondary structural elements, Helix (IDO1 [2]; compound 0.5 µM) [%]	% of Secondary structural elements, Random (IDO1 [2]; compound 0.5 µM) [%]	% of Secondary structural elements, Turn (IDO1 [2]; compound 0.5 µM) [%]	% of Secondary structural elements, Beta (IDO1 [2]; compound 1 µM) [%]	% of Secondary structural elements, Helix (IDO1 [2]; compound 1 µM) [%]	% of Secondary structural elements, Random (IDO1 [2]; compound 1 µM) [%]	% of Secondary structural elements, Turn (IDO1 [2]; compound 1 µM) [%]	% of Secondary structural elements, Beta (IDO1 [2]; compound 2 µM) [%]	% of Secondary structural elements, Helix (IDO1 [2]; compound 2 µM) [%]	% of Secondary structural elements, Random (IDO1 [2]; compound 2 µM) [%]	% of Secondary structural elements, Turn (IDO1 [2]; compound 2 µM) [%]	% of Secondary structural elements, Beta (IDO1 [2]; compound 4 µM) [%]	% of Secondary structural elements, Helix (IDO1 [2]; compound 4 µM) [%]	% of Secondary structural elements, Random (IDO1 [2]; compound 4 µM) [%]	also measured
NC(=O)c1n[nH]nc1-c1ccc(F)c(F)c1 [Compound 3i]	119 ± 13	0	30.1	35.8	34.1	0	29.4	36.8	33.8	0	29.8	35.8	34.5	0	28.5	40.8	30.7	0	30.7	60.4	% Of inhibition for IDO1 enzyme (IDO1 [1]; HPLC, 32 nM): 27%; % Of inhibition for IDO1 enzyme (IDO1 [1]; HPLC, 160 nM): 48%; % Of inhibition for IDO1 enzyme (IDO1 [1]; HPLC, 800 nM): 69%; % Of inhibition for IDO1 enzyme (IDO1 [1]; HPLC, 4 µM): 76%; % Of inhibition for IDO1 enzyme (IDO1 [1]; HPLC, 20 µM): 84%; % Of inhibition for IDO1 enzyme (IDO1 [1]; HPLC, 100 µM): 83%; % Of inhibition for TDO enzyme (TDO enzyme; 32 nM): 10%; % Of inhibition for TDO enzyme (TDO enzyme; 160 nM): 18%; % Of inhibition for TDO enzyme (TDO enzyme; 800 nM): 21%; % Of inhibition for TDO enzyme (TDO enzyme; 4 µM): 18%; % Of inhibition for TDO enzyme (TDO enzyme; 20 µM): 37%; % Of inhibition for TDO enzyme (TDO enzyme; 100 µM): 52%; % of Secondary structural elements, Turn (IDO1 [2]; compound 4 µM): 8.9%; EC50 (IDO1 [3]): 74 ± 17 nM
NS(=O)(=O)NCCNC(=O)c1n[nH]nc1-c1ccc(F)c(F)c1 [Compound 4k]	59 ± 6	3.6	26.8	34.3	35.3	0	30.6	31.2	38.2	0	28	33.9	38.1	0	23.8	46.0	30.2	0	29.1	36.4	inhibition at 0.032 µM (IDO1 [1]; HPLC, 32 nM): 14%; inhibition at 0.16 µM (IDO1 [1]; HPLC, 160 nM): 45%; inhibition at 0.8 µM (IDO1 [1]; HPLC, 800 nM): 69%; inhibition at 4 µM (IDO1 [1]; HPLC, 4 µM): 77%; inhibition at 20 µM (IDO1 [1]; HPLC, 20 µM): 86%; inhibition at 100 µM (IDO1 [1]; HPLC, 100 µM): 84%; IC50 (IDO1 [1]; kynurenine assay): 60 to 115 nM; inhibition at 0.032 µM (TDO enzyme; 32 nM): 13%; inhibition at 0.16 µM (TDO enzyme; 160 nM): 24%; inhibition at 0.8 µM (TDO enzyme; 800 nM): 46%; inhibition at 4 µM (TDO enzyme; 4 µM): 58%; inhibition at 20 µM (TDO enzyme; 20 µM): 63%; inhibition at 100 µM (TDO enzyme; 100 µM): 68%; % of Secondary structural elements, Turn (IDO1 [2]; compound 4 µM): 34.5%; EC50 (IDO1 [3]): 77 ± 5 nM
O=C(N/C(Cc1ccc(O)cc1)=N\O)c1n[nH]nc1-c1ccc(F)c(F)c1 [Compound 4i]	114 ± 10	0.7	27.8	37.6	33.9	0	28	38.1	33.9	0	27.6	40.6	31.8	0	29.8	42.6	27.6	0	31.8	38.8	% Of inhibition for IDO1 enzyme (IDO1 [1]; HPLC, 32 nM): 13%; % Of inhibition for IDO1 enzyme (IDO1 [1]; HPLC, 160 nM): 34%; % Of inhibition for IDO1 enzyme (IDO1 [1]; HPLC, 800 nM): 52%; % Of inhibition for IDO1 enzyme (IDO1 [1]; HPLC, 4 µM): 68%; % Of inhibition for IDO1 enzyme (IDO1 [1]; HPLC, 20 µM): 79%; % Of inhibition for IDO1 enzyme (IDO1 [1]; HPLC, 100 µM): 84%; IC50 (IDO1 [1]; kynurenine assay): 60 to 115 nM; % Of inhibition for TDO enzyme (TDO enzyme; 32 nM): 15%; % Of inhibition for TDO enzyme (TDO enzyme; 160 nM): 25%; % Of inhibition for TDO enzyme (TDO enzyme; 800 nM): 26%; % Of inhibition for TDO enzyme (TDO enzyme; 4 µM): 50%; % Of inhibition for TDO enzyme (TDO enzyme; 20 µM): 66%; % Of inhibition for TDO enzyme (TDO enzyme; 100 µM): 73%; % of Secondary structural elements, Turn (IDO1 [2]; compound 4 µM): 29.4%; EC50 (IDO1 [3]): 88 ± 10 nM
